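Grown in 96-well plates, cells were treated for 48 hours with each compound at five concentrations. Insufficient inhibition: endpoint recorded as highest concentration tested. GI50 = concentration required for 50% inhibition of growth. The concentration for full growth arrest is given as TGI.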
Columns and labels:
Assay in all cases: NCI-60 cell line screen, 48 h
[1] = system: BT-549 breast
[2] = system: SF-268 CNS
[3] = system: HCC-2998 colon
[4] = system: HCT-15 colon
[5] = system: NCI-H522 lung
[6] = system: HL-60(TB) leukemia
[7] = system: DU-145 prostate
[8] = system: SNB-75 CNS
[9] = system: OVCAR-5 ovarian
[10] = system: NCI-H226 lung
[11] = system: MCF7 breast
[12] = system: M14 melanoma
[13] = system: EKVX NSCLC
[14] = system: SNB-19 CNS
[15] = system: UO-31 renal
[16] = system: CAKI-1 renal
[17] = system: HOP-92 NSCLC
[18] = system: RPMI-8226 leukemia

Compound	TGI [1] [µM]	TGI [2] [µM]	TGI [3] [µM]	TGI [4] [µM]	TGI [5] [µM]	TGI [6] [µM]	TGI [7] [µM]	TGI [8] [µM]	TGI [9] [µM]	TGI [10] [µM]	TGI [11] [µM]	TGI [12] [µM]	TGI [13] [µM]	TGI [14] [µM]	TGI [15] [µM]	TGI [16] [µM]	TGI [17] [µM]	TGI [18] [µM]	GI50 [10] [µM]	GI50 [18] [µM]
Cc1ccc2c(c1)C(=O)C1(C2)Cc2c(C)cccc2C1=O (stereo not drawn)	> 100	> 100	> 100	> 100	> 100	> 100	> 100	> 100	> 100	> 100	> 100	> 100	> 100	> 100	> 100	> 100	> 100	> 100	–	–
COc1cc2c(cc1C)NC(=O)/C2=C/c1cccnc1	> 82	41	8.28	> 78	33.4	26.2	27.3	> 100	27.9	24.3	32.3	37.5	47	32.1	26.2	30.3	41.9	79.1	10.9	12.7
Nc1cc(Cl)cc2cc(Cl)cnc12	> 100	> 100	> 100	> 100	> 100	> 100	> 100	> 100	> 100	> 100	> 100	> 100	> 100	> 100	> 100	> 100	99.3	> 100	–	–
CC(NC(=O)OCc1ccccc1)NC(=O)OC(C)(C)C (stereo not drawn)	> 100	> 100	> 100	> 100	> 100	> 100	> 100	> 100	> 100	> 100	> 100	> 100	> 100	> 100	> 100	> 100	> 100	> 100	–	–
C[N+]12CCCCC1C(COc1cccc3cccnc13)CCC2 (stereo not drawn)	> 100	> 100	> 100	> 100	> 100	> 100	> 100	> 100	> 100	> 100	> 100	> 100	> 100	> 100	> 100	> 100	> 100	> 100	–	–
CC12Nc3c(Cl)cc(Cl)cc3N1C(=O)c1ccccc12 (stereo not drawn)	> 100	> 100	> 100	> 100	> 100	> 100	> 100	> 100	> 100	> 100	> 100	–	> 100	–	> 100	> 100	82.1	> 100	–	–
CN(C)CCn1c(=O)c2ccc(NCCNCCO)c3c(=O)c4ccccc4n(c1=O)c23	4.81	0.977	2.34	6.9	0.34	0.0197	0.628	0.404	5.19	4.28	3.2	1.72	2.41	3.98	0.842	0.186	0.604	–	–	–
C/C(Cl)=N/OC(=O)Nc1ccc(F)c([N+](=O)[O-])c1	29.8	32.8	> 100	12.6	4.27	6.02	33	25	> 53.4	70.1	> 49	> 48	33.1	37.3	20.5	3.69	> 72.5	> 25.7	–	–
CN1CCC23c4c5ccc(Oc6nnnn6-c6ccccc6)c4OC2c2[nH]c4ccccc4c2CC3(O)C1C5 (stereo not drawn)	36.7	21.2	3.3	6.36	4.01	3.69	19.6	7.66	32.6	27.6	5.12	3.38	24.2	22.4	3.18	4.77	7.71	6.06	–	–
O=S(=O)(O)CCSSCCS(=O)(=O)O	> 1000	> 1000	> 1000	> 1000	> 1000	> 1000	> 1000	> 1000	> 1000	> 1000	> 1000	> 1000	> 1000	> 1000	> 1000	> 1000	> 1000	> 1000	–	–
CC1=NN(c2ccccc2)C2(C1)C(Cl)C(=O)N2c1nc2ccccc2s1 (stereo not drawn)	> 100	> 100	> 100	> 100	58.9	55.5	> 100	> 100	> 100	85.7	> 100	> 100	> 100	> 100	> 100	> 100	> 100	67.2	–	–
CCN(CCCl)c1cc(CN(C)C)cc(NC(=O)c2ccc(C(=O)Nc3cc(CN(C)C)cc(N(CC)CCCl)c3)cc2)c1	0.683	0.749	0.311	29.5	0.234	1.09	13.7	0.506	0.966	0.251	0.241	0.926	5.58	0.936	11.6	1.74	0.662	1.02	–	–
O=c1[nH]c(=O)n(C/C=C/CO)nc1Br	> 100	> 100	> 100	> 100	> 100	> 100	> 100	> 100	> 100	> 100	> 100	> 100	> 100	> 100	> 100	> 100	> 100	> 100	–	–

From PubChem BioAssay (NCI)
